Assay results taken from PubChem BioAssay (NCI).
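These data come from cells grown in 96-well plates and exposed to compound for 48 hours at five concentrations. GI50: concentration for 50% inhibition of growth. TGI marks complete inhibition of growth.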

Experiments:
Assay in all cases: NCI-60 cell line screen, 48 h
[1] = test system: K-562 leukemia
[2] = test system: OVCAR-5 ovarian
[3] = test system: SF-295 CNS
[4] = test system: EKVX NSCLC
[5] = test system: T-47D breast
[6] = test system: BT-549 breast
[7] = test system: NCI-H460 lung
[8] = test system: SR leukemia
[9] = test system: MDA-MB-435
[10] = test system: PC-3 prostate
[11] = test system: SK-OV-3 ovarian
[12] = test system: ACHN renal
[13] = test system: 786-0 renal
[14] = test system: HCT-116 colon
[15] = test system: SK-MEL-5 melanoma
[16] = test system: DU-145 prostate
[17] = test system: SNB-19 CNS
[18] = test system: HCT-15 colon
[19] = test system: UACC-257 melanoma
[20] = test system: TK-10 renal
[21] = test system: MCF7 breast
[22] = test system: A498 renal
[23] = test system: OVCAR-8 ovarian
[24] = test system: NCI-H23 lung
[25] = test system: NCI-H226 lung
[26] = test system: MOLT-4 leukemia
[27] = test system: SN12C renal
[28] = test system: SW-620 colon
[29] = test system: MDA-MB-468 breast
[30] = test system: SF-539 CNS
[31] = test system: HOP-62 NSCLC
[32] = test system: CCRF-CEM leukemia
[33] = test system: HL-60(TB) leukemia
[34] = test system: HCC-2998 colon
[35] = test system: OVCAR-4 ovarian
[36] = test system: IGROV1 ovarian
[37] = test system: RPMI-8226 leukemia
[38] = test system: UO-31 renal
[39] = test system: SK-MEL-28 melanoma
[40] = test system: U251 CNS
[41] = test system: SK-MEL-2 melanoma
[42] = test system: COLO 205 colon
[43] = test system: A549 NSCLC
[44] = test system: MALME-3M melanoma
[45] = test system: UACC-62 melanoma
[46] = test system: LOX IMVI melanoma
[47] = test system: HS 578T breast
[48] = test system: MDA-MB-231 breast
[49] = test system: SF-268 CNS
[50] = test system: CAKI-1 renal
[51] = test system: HT29 colon
[52] = test system: M14 melanoma
[53] = test system: OVCAR-3 ovarian
[54] = test system: KM12 colon
[55] = test system: RXF 393 renal
[56] = test system: HOP-92 NSCLC
[57] = test system: NCI-H522 lung
[58] = test system: SNB-75 CNS

`Clc1ccccc1Nc1nnc(-c2c[nH]c3ccccc23)o1` was tested, and the GI50 [1] was 0.308 µM, the TGI [1] was > 100 µM and the GI50 [2] was 4.33 µM. It also gave a TGI [2] of 31.9 µM, a GI50 [3] of 0.316 µM and a TGI [3] of 10.2 µM. For the same compound, the GI50 [4] was 3.05 µM, the TGI [4] was 77.7 µM and the GI50 [5] was 4.1 µM. For the same compound, the TGI [5] was > 100 µM, the GI50 [6] was 2.27 µM and the TGI [6] was 34.6 µM. The GI50 [7] was 0.787 µM, the TGI [7] was 15.2 µM and the GI50 [8] was 0.387 µM. The TGI [8] was > 100 µM, the GI50 [9] was 0.233 µM and the TGI [9] was 0.778 µM. It also gave a GI50 [10] of 1.9 µM, a TGI [10] of 57.6 µM and a GI50 [11] of 3.68 µM. For the same compound, the TGI [11] was 74.9 µM, the GI50 [12] was 1.49 µM and the TGI [12] was 37.5 µM. The GI50 [13] was 9.52 µM, the TGI [13] was 28.1 µM and the GI50 [14] was 11.9 µM. For the same compound, the TGI [14] was 77.6 µM, the GI50 [15] was 0.966 µM and the TGI [15] was 7.39 µM. The GI50 [16] was 2.78 µM, the TGI [16] was 56.9 µM and the GI50 [17] was 0.721 µM. It also gave a TGI [17] of 31.5 µM, a GI50 [18] of 0.35 µM and a TGI [18] of 23.9 µM. It also gave a GI50 [19] of 14.1 µM, a TGI [19] of 88.7 µM and a GI50 [20] of 8.09 µM. The TGI [20] was > 100 µM, the GI50 [21] was 0.583 µM and the TGI [21] was 21.6 µM. The GI50 [22] was 18.8 µM, the TGI [22] was 50.8 µM and the GI50 [23] was 1.6 µM. It also gave a TGI [23] of 18.1 µM, a GI50 [24] of 2 µM and a TGI [24] of 17.1 µM. For the same compound, the GI50 [25] was 5.39 µM, the TGI [25] was > 100 µM and the GI50 [26] was 0.654 µM. It also gave a TGI [26] of 23.2 µM, a GI50 [27] of 0.93 µM and a TGI [27] of 21.7 µM. The GI50 [28] was 0.479 µM, the TGI [28] was 29.1 µM and the GI50 [29] was 1.2 µM. For the same compound, the TGI [29] was 4.9 µM, the GI50 [30] was 0.708 µM and the TGI [30] was 3.24 µM. For the same compound, the GI50 [31] was 4.58 µM, the TGI [31] was 63.5 µM and the GI50 [32] was 0.501 µM. It also gave a TGI [32] of 26.5 µM, a GI50 [33] of 0.321 µM and a TGI [33] of 4.56 µM. It also gave a GI50 [34] of 1.85 µM, a TGI [34] of 14.2 µM and a GI50 [35] of 22.7 µM. The TGI [35] was > 100 µM, the GI50 [36] was 0.429 µM and the TGI [36] was 33.5 µM. The GI50 [37] was 1.31 µM, the TGI [37] was > 100 µM and the GI50 [38] was 1.82 µM. For the same compound, the TGI [38] was 49.7 µM, the GI50 [39] was 10.4 µM and the TGI [39] was 27.3 µM. It also gave a GI50 [40] of 0.505 µM, a TGI [40] of 17.5 µM and a GI50 [41] of 0.318 µM. It also gave a TGI [41] of 1.06 µM, a GI50 [42] of 0.867 µM and a TGI [42] of 11.7 µM. The GI50 [43] was 1.73 µM, the TGI [43] was > 100 µM and the GI50 [44] was 0.498 µM. For the same compound, the TGI [44] was 20.1 µM, the GI50 [45] was 0.402 µM and the TGI [45] was 17.1 µM. For the same compound, the GI50 [46] was 0.618 µM, the TGI [46] was 19.8 µM and the GI50 [47] was 1.52 µM. It also gave a TGI [47] of 20.6 µM, a GI50 [48] of 2.18 µM and a TGI [48] of 23.5 µM. The GI50 [49] was 6.89 µM, the TGI [49] was 51.7 µM and the GI50 [50] was 0.647 µM. For the same compound, the TGI [50] was 33.2 µM, the GI50 [51] was 0.353 µM and the TGI [51] was 10.3 µM. For the same compound, the GI50 [52] was 0.71 µM, the TGI [52] was 20.2 µM and the GI50 [53] was 0.43 µM. For the same compound, the TGI [53] was 15 µM, the GI50 [54] was 1.57 µM and the TGI [54] was 28.7 µM. The GI50 [55] was 1.52 µM, the TGI [55] was 11.1 µM and the GI50 [56] was 11.5 µM. It also gave a TGI [56] of 54.6 µM, a GI50 [57] of 0.305 µM and a TGI [57] of 2.38 µM.
`CSc1ccccc1NC(=O)c1ccc2nn(/C(C#N)=C/c3ccccn3)nc2c1` showed a GI50 [2] of 4.69 µM, a TGI [2] of 17.5 µM and a GI50 [3] of 13.8 µM. For the same compound, the TGI [3] was 27.3 µM, the GI50 [4] was 9.18 µM and the TGI [4] was 21.6 µM. The GI50 [5] was 3.5 µM, the TGI [5] was 16.6 µM and the GI50 [6] was 6.17 µM. The TGI [6] was 18.7 µM, the GI50 [7] was 3.16 µM and the TGI [7] was 11.6 µM. The GI50 [8] was 2.35 µM, the TGI [8] was 7.96 µM and the GI50 [9] was 2.67 µM. For the same compound, the TGI [9] was 9.09 µM, the GI50 [10] was 7.04 µM and the TGI [10] was 23.7 µM. The GI50 [11] was 16 µM, the TGI [11] was 30.1 µM and the GI50 [12] was 2.1 µM. The TGI [12] was 4.42 µM, the GI50 [13] was 3.68 µM and the TGI [13] was 12.4 µM. The GI50 [14] was 2.14 µM, the TGI [14] was 4.72 µM and the GI50 [15] was 4.99 µM. The TGI [15] was 17.2 µM, the GI50 [16] was 4.38 µM and the TGI [16] was 15 µM. It also gave a GI50 [17] of 12.8 µM, a TGI [17] of 26.5 µM and a GI50 [18] of 1.73 µM. For the same compound, the TGI [18] was 3.53 µM, the GI50 [19] was 2.57 µM and the TGI [19] was 7.49 µM. The GI50 [20] was 4.26 µM, the TGI [20] was 15.9 µM and the GI50 [21] was 3 µM. The TGI [21] was 13.1 µM, the GI50 [22] was 16 µM and the TGI [22] was 29.7 µM. It also gave a GI50 [23] of 3.14 µM, a TGI [23] of 11.7 µM and a GI50 [24] of 5.13 µM. It also gave a TGI [24] of 18.2 µM, a GI50 [25] of 13.5 µM and a TGI [25] of 28.5 µM. The GI50 [26] was 2.68 µM, the TGI [26] was 7.74 µM and the GI50 [27] was 4.53 µM. For the same compound, the TGI [27] was 16.1 µM, the GI50 [28] was 2.29 µM and the TGI [28] was 5.39 µM. For the same compound, the GI50 [58] was 5.8 µM, the TGI [58] was 20.6 µM and the GI50 [29] was 1.84 µM. It also gave a TGI [29] of 4.2 µM, a GI50 [30] of 2.8 µM and a TGI [30] of 8.64 µM. It also gave a GI50 [31] of 13.1 µM, a TGI [31] of 27.2 µM and a GI50 [32] of 3.13 µM. It also gave a TGI [32] of 30.7 µM, a GI50 [33] of 2.07 µM and a TGI [33] of 6.58 µM. For the same compound, the GI50 [34] was 4.08 µM, the TGI [34] was 14.6 µM and the GI50 [35] was 6.5 µM. It also gave a TGI [35] of 19.5 µM, a GI50 [36] of 4.52 µM and a TGI [36] of 15.9 µM. The GI50 [37] was 2.63 µM, the TGI [37] was 8.32 µM and the GI50 [38] was 2.01 µM. For the same compound, the TGI [38] was 4.74 µM, the GI50 [39] was 2.06 µM and the TGI [39] was 4.57 µM. For the same compound, the GI50 [40] was 4.35 µM, the TGI [40] was 15.7 µM and the GI50 [41] was 6.47 µM. The TGI [41] was 20 µM, the GI50 [42] was 1.96 µM and the TGI [42] was 4.25 µM. The GI50 [43] was 12.2 µM, the TGI [43] was 28.5 µM and the GI50 [44] was 2 µM. For the same compound, the TGI [44] was 4.25 µM, the GI50 [45] was 3.77 µM and the TGI [45] was 14.6 µM. The GI50 [46] was 1.72 µM, the TGI [46] was 3.28 µM and the GI50 [47] was 3.19 µM. For the same compound, the TGI [47] was 14.3 µM, the GI50 [48] was 2.91 µM and the TGI [48] was 8.48 µM. It also gave a GI50 [49] of 10.3 µM, a TGI [49] of 28.1 µM and a GI50 [50] of 2.78 µM. It also gave a TGI [50] of 10.8 µM, a GI50 [51] of 3.09 µM and a TGI [51] of 10.1 µM. For the same compound, the GI50 [52] was 2.96 µM, the TGI [52] was 10.4 µM and the GI50 [53] was 2.29 µM. It also gave a TGI [53] of 5.95 µM, a GI50 [54] of 7.64 µM and a TGI [54] of 24.2 µM. For the same compound, the GI50 [55] was 1.78 µM, the TGI [55] was 4.16 µM and the GI50 [56] was 6.41 µM. The TGI [56] was 23.9 µM, the GI50 [57] was 1.65 µM and the TGI [57] was 3.43 µM.
